Data on nine compounds can be found in ChEMBL document CHEMBL5338828, “Structure-Activity Relationships of Bis-Intercalating Peptides and Their Application as Antibody-Drug Conjugate Payloads” (J Med Chem, 2023).

The nature of data set [1]: Binding affinity to biotinylated hairpin DNA (unknown origin) at 0.312 to 5 uM by SPR analysis. Conditions: dose 0.312-5 µM.
The nature of data set [2]: Retention time of the compound by HPLC analysis. It is filed as physicochemical.
A short description of data set [3]: Binding affinity to biotinylated hairpin DNA (unknown origin) assessed as binding constant by SPR analysis. In general terms: Surface plasmon resonance follows binding to a sensor surface in real time, without labels.
A short description of data set [4]: Stability in mouse plasma at 1 uM measured upto 1440 min by UHPLC-MS/MS analysis. It is filed as ADME, cell-free. Conditions: 24 h.
Another data set deals with IGROV-1. The data set is described as follows: Cytotoxicity against human IGROV-1 cells assessed as inhibition of cell growth incubated for 5 days by CellTiter-Glo luminescence assay. The settings on record: IGROV-1, 120 h. It is filed as functional, cell-based. For orientation: In ATP-based viability assays light output follows the ATP content of the culture.
The test system of a further data set is OVCAR-3. The data set is described as follows: Cytotoxicity against human OVCAR-3 cells assessed as inhibition of cell growth incubated for 5 days by CellTiter-Glo luminescence assay. It is filed as functional, cell-based. Conditions: OVCAR-3, 120 h.
The test system of the next data set is Clupeidae. The data set is described as follows: Binding affinity to Herring sperm DNA assessed as melting temperature by differential scanning calorimetric analysis. Background: In DSC, transitions show as peaks or steps in heat flow.
A further data set has as its system EBC-1. Description: Cytotoxicity against human EBC-1 cells assessed as inhibition of cell growth incubated for 5 days by CellTiter-Glo luminescence assay. Conditions: EBC-1, 120 h. It is filed as functional, cell-based.
Data set [5] is described as follows: Stability in mouse plasma assessed as half-life at 1 uM measured upto 1440 min by UHPLC-MS/MS analysis. It is filed as ADME, cell-free.
Data set [6] can be described thus: Stability in mouse plasma assessed as parent compound remaining measured after 24 hrs by LC-MS analysis. It counts as ADME, cell-free. The settings on record: read-out: Stability.

The source made the active and inactive calls. The rule behind the calls is not given here. Where a SMILES comes first, the peptide text is derived from it. Bridges are numbered along the chain shown (N, C = ends). Roman numbers before positions name the chains, in order. [ ]: non-standard residue; d: D form. The star is where a group is joined. Quinaldoyl(3-OH) = O=C(c1nc2ccccc2cc1O)*; NMeV = CN[C@H](C(=O)O)C(C)C; Pip = O=C(O)[C@@H]1CCCCN1; dDap = NC[C@@H](N)C(=O)O

Take `CC(C)[C@H]1C(=O)NC[C@@H](NC(=O)c2nc3ccccc3cc2O)C(=O)N2CCCC[C@H]2C(=O)NCC(=O)NCC(=O)N(C)[C@@H](C(C)C)C(=O)NC[C@@H](NC(=O)c2nc3ccccc3cc2O)C(=O)N2CCCC[C@H]2C(=O)NCC(=O)NCC(=O)N1C` (I: {Quinaldoyl(3-OH)}-[dDap][Pip]GG[NMeV] / II: {Quinaldoyl(3-OH)}-[dDap][Pip]GG[NMeV]; amide I:1-II:C, I:C-II:1): the result in [1] was inactive. In data set [2], this compound displayed a Retention_time of 15.1 min.
As usually defined, the Kd is the free concentration of one partner at which half of the binding sites on the other are occupied at equilibrium, for simple one-to-one binding. The IC50 is the concentration that inhibits the measured activity by half. Take `CC(C)[C@H]1COC[C@@H](NC(=O)c2nc3ccccc3cc2O)C(=O)N2CCCC[C@H]2C(=O)NCC(=O)N(C)CC(=O)N(C)[C@@H](C(C)C)C(=O)NC[C@@H](NC(=O)c2nc3ccccc3cc2O)C(=O)N2CCCC[C@H]2C(=O)NCC(=O)N(C)CC(=O)N1C`: in data set [3], the Kd came to 300 nM. The compound also registered a Retention_time in data set [2] of 18.4 min. Further, the Stability result in data set [4] is recorded as “Stable”. The IC50 in the data set on IGROV-1 is 6.4 nM; in the data set with OVCAR-3 it was 2.9 nM; with EBC-1, 5.4 nM. Moreover, the Tm in the data set with Clupeidae worked out at 92 °C.
Usually half-life stands for the time in which the quantity being followed falls by half. For `CCOC(=O)[C@H](CCc1ccccc1)N[C@@H](C)C(=O)N1CCC[C@H]1C(=O)O` [ENALAPRIL], the half-life at 1 µM in [5] worked out at 2.83 h.
Take `CC(C)[C@H]1C(=O)NC[C@@H](NC(=O)c2nc3ccccc3cc2O)C(=O)N2CCCC[C@H]2C(=O)NCC(=O)N(C)CC(=O)N(C)[C@@H](C(C)C)C(=O)NC[C@@H](NC(=O)c2nc3ccccc3cc2O)C(=O)N2CCCC[C@H]2C(=O)NCC(=O)N(C)CC(=O)N1C`: the Kd in data set [3] amounted to 3300 nM. The compound also gave a Retention_time in data set [2] of 17.1 min. Moreover, the Stability entry in data set [4] is listed as “Stable”. Further, the results for the IC50 with IGROV-1, in the data set with OVCAR-3 and in the data set on EBC-1 were 39 nM, 18 nM and 46 nM, respectively. Moreover, the Tm in the data set on Clupeidae is 88 °C.
As for `CC(C)[C@H]1C(=O)NCC(=O)N(C)CC(=O)N2CCCC[C@H]2C(=O)NC[C@@H](NC(=O)c2nc3ccccc3cc2O)C(=O)N(C)[C@@H](C(C)C)C(=O)NCC(=O)N(C)CC(=O)N2CCCC[C@H]2C(=O)NC[C@@H](NC(=O)c2nc3ccccc3cc2O)C(=O)N1C`, the result in data set [1] was inactive. Moreover, the Retention_time in data set [2] came to 16.8 min.
As for `CC(C)[C@H]1C(=O)OC[C@@H](NC(=O)c2nc3ccccc3cc2O)C(=O)N2CCCC[C@H]2C(=O)NCC(=O)N(C)CC(=O)N(C)[C@@H](C(C)C)C(=O)OC[C@@H](NC(=O)c2nc3ccccc3cc2O)C(=O)N2CCCC[C@H]2C(=O)NCC(=O)N(C)CC(=O)N1C`, in data set [3], the Kd was 360 nM. Further, the Retention_time in [2] was 21.6 min. Besides, the half-life at 1 µM in data set [5] was determined as 5.5 h. The IC50 turned out to be 1.6 nM in the data set with IGROV-1, 1 nM with OVCAR-3 and 1.4 nM in the data set with EBC-1. For the same compound, the remaining at 24 h in data set [6] was less than 5%. Moreover, the Tm with Clupeidae was found to be 102 °C.
In the case of `CC(C)[C@H]1C(=O)NC[C@@H](NC(=O)c2nc3ccccc3cc2O)C(=O)N2CCCC[C@H]2C(=O)NCC(=O)N(C)CC(=O)N(C)[C@@H](C(C)C)C(=O)OC[C@@H](NC(=O)c2nc3ccccc3cc2O)C(=O)N2CCCC[C@H]2C(=O)NCC(=O)N(C)CC(=O)N1C`, the Kd in data set [3] was determined as 80 nM. The compound also registered a Retention_time in data set [2] of 19.6 min. The half-life at 1 µM in data set [5] was determined as 12 h. Further, the IC50 in the data set with IGROV-1 amounted to 1.2 nM; with OVCAR-3, 0.6 nM; in the data set with EBC-1, 0.6 nM. The Tm in the data set on Clupeidae was determined as 97 °C.
For `CC[C@H](C)[C@H]1C(=O)NC[C@@H](NC(=O)c2nc3ccccc3cc2O)C(=O)N2CCCC[C@H]2C(=O)NCC(=O)N(C)CC(=O)N(C)[C@@H]([C@@H](C)CC)C(=O)NC[C@@H](NC(=O)c2nc3ccccc3cc2O)C(=O)N2CCCC[C@H]2C(=O)NCC(=O)N(C)CC(=O)N1C`, the Kd in [3] amounted to 400 nM. Moreover, the Retention_time in data set [2] came to 18.8 min. Also, the Tm in the data set with Clupeidae turned out to be 91 °C.
As to `CC(C)[C@H]1COC[C@@H](NC(=O)c2nc3ccccc3cc2O)C(=O)N2CCCC[C@H]2C(=O)NCC(=O)N(C)CC(=O)N(C)[C@@H](C(C)C)C(=O)OC[C@@H](NC(=O)c2nc3ccccc3cc2O)C(=O)N2CCCC[C@H]2C(=O)NCC(=O)N(C)CC(=O)N1C`, the Kd in [3] is 300 nM. Further, the Retention_time in [2] worked out at 20.2 min. Further, the Tm with Clupeidae was found to be 96 °C.
